Laboratory results taken from patent US4044043A, “Derivatives of 9-oxo-13-trans-prostenoic acid esters” (American Cyanamid Company, priority 1975, dated 1977).
Converted amounts (≈) assume the structure as drawn. Read-outs that look alike come from different tables or passages of the source.

Experiments:
gastric acid secretion [1] = assay: Inhibition of Gastric Acid Secretion (Pylorous-Ligated Rat), Shay rat procedure; format: in vivo, rats (male, CFE strain); conditions: read-out: % Inhibition of Control Gastric Acid Secretion; for inhibition in vivo at 100 mg/kg: 100 mg./kg. intraduodenal
From the text: The novel compounds of the present invention are also effective inhibitors of gastric acid secretion and of ulcer development in experimental animals, and thus are potentially valuable as agents for the control of gastric acid secretion and of gastric erosion and as anti-ulcer agents. Gastric acid secretion inhibitory action is usually measured by the Shay rat procedure ^(1,2) with some modifications as follows. 6 1. Shay et al., Gastroenterology, 5, 43 (1945). 6 2. Shay et al., Gastroenterology, 26, 906 (1954).
The rats (male, CFE strain) were starved for 48 hours (water was given ad libitum) to permit evacuation of stomach contents. On the morning of the experiment, under ether anesthesia, the abdominal region was shaved and a midline incision (1-1 1/2 inch) was made with a scalpel. With the help of a closed curved hemostat the duodenum was picked up. Upon getting the duodenum into view fingers were used to pull the stomach through the opening, the stomach was then gently manipulated with fingers to rid stomach of air and residual matter which were pushed through the pylorus. Two 5-inch sutures were drawn under the pyloric-duodenal puncture. A ligature, at the juncture, was formed with one of the threads. The second ligature was also formed but not tightened.
The test compound or the vehicle, usually 1 ml./100 g. body weight, were injected into the duodenum as close as possible to the first ligature. After injection the second ligature was tightened below the injection site to minimize leakage. The stomach was placed back through the opening into the abdominal cavity, the area of incision was washed with saline and the incision was closed with autoclips. (Ocasionally instead of an intraduodenal injection, animals were dosed by the oral or subcutaneous route. In the latter case, dosing was done thirty to sixty minutes before the operation).
The abdominal cavity was exposed by cutting with scissors and the esophagus close to the stomach was clamped off with a hemostat, the stomach was removed by cutting above the hemostat (the esophagus was cut) and between the two sutures. Extraneous tissue was removed, the stomach washed with saline and blotted on gauze. A slit was carefully made in the stomach which was held over a funnel and the contents were collected in a centrifuge tube. The stomach was further cut along the outside edge and turned inside out. Two ml. of water were used to wash the stomach contents into the respective centrifuge tube. The combined stomach contents and wash were then centrifuged out for 10 minutes in the International Size 2 Centrifuge (setting at 30). The supernatant was collected, volume measured and recorded, 2 drops of phenolphthalein indicator (1% in 95% ethanol) were added and the solution was titrated with 0.02N NaOH (or with 0.04N NaOH when large volumes of stomach contents were encountered) to pH 8.4 (because of usual coloring of the stomach contents, phenolphthalein was only used to permit visual indication that the end point was near) and the amount of acid present was calculated.
Compounds inducing inhibition of gastric acid secretion of 20% or more were considered active. In a representative operation, and merely by way of illustration, the results obtained with this assay with typical compounds of the present invention are given in Table IIIA.

[2] = system: bronchospasms elicited by 5-hydroxytryptamine; assay: Bronchodilator Activity (Konzett Assay) against 5-hydroxytryptamine; format: in vivo, guinea pigs; conditions: Cavia porcellus; three logarithmic cumulative intravenous doses
Method: (§1) Bronchodilator activity was determined in guinea pigs against bronchospasms elicited by intravenous injections of 5-hydroxytryptamine, histamine or acetylcholine by the Konzett procedure. [See J. Lulling, P. Lievens, F. El Sayed and J. Prignot, Arzeneimittel-Forschung, 18, 995 (1968)]. In Table IIIC which follows bronchodilator activity for representative compounds of this invention against one or more of the three spasmogenic agents is expressed as an ED50 determined from the results obtained with three logarithmic cumulative intravenous doses.

[3] = system: bronchospasms elicited by histamine; assay: Bronchodilator Activity (Konzett Assay) against histamine; format: in vivo, guinea pigs; conditions: Cavia porcellus; three logarithmic cumulative intravenous doses
Method: as §1

[4] = system: bronchospasms elicited by acetylcholine; assay: Bronchodilator Activity (Konzett Assay) against acetylcholine; format: in vivo, guinea pigs; conditions: Cavia porcellus; three logarithmic cumulative intravenous doses
Method: as §1

[5] = system: dl-PGE1-induced contraction of gerbil colon; assay: Inhibition of dl-PGE1-Induced Contraction of Gerbil Colon (prostaglandin antagonist action); format: cell-based, gerbils (Meriones unguiculatus); conditions: Meriones unguiculatus, 1 min
Method: The compounds of this invention are also useful as antagonists of prostaglandin action and accordingly they are potentially useful as anti-inflammatory agents, and as agents for the treatment of periodontal diseases and diarrhea. Testing for prostaglandin antagonist action is carried out in the following manner. Sections of ascending colon, approximately 20 mm. long, from mature male gerbils (Meriones unguiculatus) weighing 70-80 g. were mounted in De Jalon's solution (154 mM NaCl; 5.95 mM NAHCO3; […], 5.64 mM KC and .27 mM CaCl2 in 20 ml. tissue baths) (L and K Glass Co., Lynnhurst, N.J.). The medium was continually gassed with a mixture of 95% 02 -5% CO2 and maintained at 37° C. The tissues were suspended via silk suture threads between a glass hook at the base and a model FT .03C force displacement transducer (Grass Instruments, Quincy, Massachusetts). Contractions were recorded on a Poly-Viso ® polygraph (Sanborn Co., Cambridge, Massachusetts). After mounting, tissues were allowed to stabilize 15-20 minutes during which time adjustments were made to establish and maintain a 0.5 g. resting tension on the muscle. Thereafter, test cycles of 3-5 minutes were begun and consisted of a 1 minute exposure to the potential antagonist, if called for, followed by a 1 minute exposure to the prostaglandin agonist, a 15-30 sec. washout and a recovery period of 2-2.5 minutes. […] During the washout period, the tissue was rinsed with a measured amount equalling 8 volumes of medium. Muscle relaxation was virtually complete by the end of the washout period. During preliminary tests it was noted that a final concentration of 200 ng./ml. of a racemic mixture of synthetic prostaglandin-E1 (dl-PGE1) produced maximal muscle contraction. Following stabilization, muscles were exposed 2 to 3 times to this concentration of dl-PGE1 until a consistent response was recorded. Once maximal responses were established, test cycles with potential antagonists were commenced and were followed alternately with prostaglandin-only test cycle. […] The contraction of the muscle induced by 200 ng./ml. dl-PGE1 following exposure to a given concentration of the potential antagonist was always compared to the response of the tissue to that level of dl PGE1 in the immediately preceding cycle. Using a series of potential antagonist concentrations, an approximate ID50 (concentration at which 50% inhibition was observed) was established. The compounds were also tested against a sub-maximal prostaglandin challenge (20 ng./ml. dl-PGE1) in which case activity is reported in terms of a 50% inhibition of maximum response.

gastric acid secretion [6] = assay: Inhibition of basal Gastric Acid Secretion (Acute Gastric Fistula Rat); format: in vivo, Female Sprague-Dawley rats; conditions: 2 h, 10 mg./kg. intraduodenal, B: 120 minute collection
Method: Inhibition of basal gastric acid secretion was determined in the acute gastric fistula rat as follows. Female Sprague-Dawley rats (Charles River Laboratories) weighing 140-160 grams are fasted in individual cages for 18-24 hours. The rats are then lightly anesthetized with ether and their front teeth extracted to avoid destruction of the plastic cannula. A midline incision is then made and the stomach and duodenum exposed. A flanged polyvinyl tube is inserted into the fundic portion of the stomach and secured with a purse string suture line using 4-0 Mersilene. The rat is then dosed by injection of the compound into the duodenum (1.0 ml. per 100 gram body weight). After dosing, the abdominal wall and skin are closed using metal wound clips. The rat is replaced in a cage containing a longitudinal slit to allow the polyvinyl tube to hang freely. An 8 ml. plastic collecting tube is attached to the flanged cannula and hangs freely below the cage. The first 30 minute sample is discarded designating this time as zero. The collecting tube is attached again and samples removed at the end of 60 and 120 minutes. Those samples are referred to as "A" and "B" in the table. The hourly samples are then transferred to a 15 ml. centrifuge tube and centrifuged for 5-10 minutes. Total and sediment volume are then recorded with the supernatant volume being used as volume of secretion. A 1 ml. or less aliquot is then removed and placed in a 50 ml. beaker containing 10 ml. of distilled water. This sample is then titrated using 0.01N NaOH to pH 7.0 using a Beckman zeromatic pH meter. Volume, titratable acidity (meq/L) and total acid output (μ eq/hour) are recorded. Percent inhibition is determined by comparison with the appropriate control. Groups of three rats were used. All compounds are administered in vehicle (0.5% methocel, 0.4% Tween 80, saline) at a constant volume of 1 ml./100 gram rat. Samples were sonicated with care to prevent overheating.

[7] = system: Trichophyton tonsurans NIH 662; assay: agar-dilution streak-plate antimicrobial assay; format: cell-based; conditions: NIH662, read-out: Minimal inhibitory conc. (3)
Method: (§2) The novel compounds of the present invention are also useful as antimicrobial agents. […] In this assay, the compounds to be tested are made up to contain 2.5 mg. of test compound per milliliter of solution. Observing sterile techniques, two-fold serial dilution are made of each test solution. One milliliter of each of the original solutions and of each of the serial dilutions is then added to 9 ml. of warm sterile nutrient agar capable of supporting growth of the bacterial test cultures. A second set of agar dilutions is prepared identical to the first except that the nutrient agar is designed to support the growth of the fungal test cultures. […] The test bacteria and yeast-like fungi are prepared for use by growing in broth overnight. The spores of the filamentous fungi are harvested from mature agar slant cultures and are suspended in sterile physiological saline solution. A loopful of each of the resulting live suspensions is then, still employing sterile techniques, streaked upon the surfaces of each of the agar plates and the resulting streaked plates are then incubated. After an appropriate period of time, each of the streaks on each of the plates is inspected visually and the extent, if any, of bacterial or fungal growth is noted. The minimal inhibitory concentration (expressed in micrograms per milliliter) is defined as the concentration of test compound causing complete inhibition of growth of any particular organism. In a representative operation, and merely by way of illustration, the minimal inhibitory concentration of typical compounds of the present invention against a variety of test organisms as determined in the above-described assay are set forth in Tables II and III below: […]

[8] = system: Mycobacterium smegmatis ATCC 606; assay: agar-dilution streak-plate antimicrobial assay; format: cell-based; conditions: Mycolicibacterium smegmatis, ATCC606, read-out: Minimal inhibitory conc. (6)
Method: as §2

diastolic blood pressure = assay: Prostaglandin-like hypotensive activity in anesthetized rats (minimal dose for about 10 mm. decrease in diastolic blood pressure); format: in vivo, Male Wistar strain rats; conditions: Rattus norvegicus; intravenous; decrease of about 10 mm. in diastolic blood pressure
Method: This procedure is a modification of the technique described by Pike et al., Prostaglandins, Nobel Symposium 2, Stockholm, June, 1966; p, 165.
Male Wistar strain rats (Royal Hart Farms) averaging approximately 250 grams in weight were fastened to rat boards in a supine position by means of canvas vests and limb ties. The femoral area was infiltrated subcutaneously with lidocaine and the iliac artery and vein exposed and cannulated. Arterial blood pressure (systolic/diastolic) was recorded using a Statham P23 Db pressure transducer-Offner dynograph system. To obtain a stable blood pressure, the animals were anesthetized before use with pentobarbital, 30 mg./kg. of body weight intravenously, and also were given hexamethonium bitartrate, 2 mg./kg. of body weight intravenously. The test compounds were prepared by ultrasonic dispersion in a saline-Tween 80 ® vehicle. A constant intravenous dose volume of 0.5 ml. was administered and test doses ranged from 0.1 to 10.0 mg./kg. of body weight. Increasing or decreasing doses were selected depending on the dose response obtained. In Table I below are set forth the minimal doses required to produce a decrease of about 10 mm. in diastolic blood pressure for typical compounds of the present invention.

[9] = 200 ng./ml. dl-PGE1, read-out: ID50 vs. 200 ng. of PGE1/ml.
[10] = sub-maximal challenge, 20 ng./ml. dl-PGE1, 50% inhibition of maximum response, read-out: ID50 vs. 20 ng. of PGE1/ml.
[11] = read-out: % Inhibition Total Acid Output
[12] = read-out: % Inhibition Total Acidity

| SMILES | ED50 [2] | ED50 [3] | ED50 [4] | IC50 [5, 9] | IC50 [5, 10] | inhibition in vivo at 100 mg/kg (gastric acid secretion [1]) | other results |
| --- | --- | --- | --- | --- | --- | --- | --- |
| CCCCCC/C=C/[C@@H]1CCC(=O)[C@H]1CCCCC(C)(C)CC(=O)O (relative stereo) [3,3-dimethyl-9-oxo-13-trans-prostenoic acid] | 12 mg/kg | 5.1 mg/kg | > 10 mg/kg | 3 to 5 µg/mL (≈ 8.56 to 14.3 µM) | 1 µg/mL (≈ 2.85 µM) | – | inhibition in vivo at 200 mg/kg (gastric acid secretion [1]; 200 mg./kg. intraduodenal): 72% |
| CCCCCC/C=C/[C@@H]1CCC(=O)[C@H]1CCCCOCC(=O)O (relative stereo) [9-oxo-3-oxa-13-trans-prostenoic acid] | 0.895 mg/kg | 0.67 mg/kg | 5.24 mg/kg | 20 µg/mL (≈ 61.6 µM) | – | 90% | – |
| CCCCCC/C=C/[C@@H]1CCC(=NO)[C@H]1CCCCCCC(=O)O (relative stereo) [9-oxo-13-trans-prostenoic acid 9-oxime, 9-Oxo-13-trans-prostenoic acid oxime] | 30 mg/kg | 23.1 mg/kg | 12.5 mg/kg | – | 1 to 2 µg/mL (≈ 2.96 to 5.93 µM) | 39% | – |
| CCCC/C=C/[C@H]1CCC(=O)[C@@H]1CCCCCCC(=O)O (relative stereo) [9-oxo-19,20-dinor-13-trans-prostenoic acid] | 2.16 mg/kg | 0.715 mg/kg | 5.28 mg/kg | – | 1 to 2 µg/mL (≈ 3.4 to 6.79 µM) | 77% | inhibition in vivo at 50 mg/kg (gastric acid secretion [1]; 50 mg./kg. intraduodenal): 37% |
| CCCCCC/C=C/[C@@H]1CCC(=O)[C@H]1CCCCC(C)(C)CC(=O)OCC (relative stereo) [ethyl 9-oxo-3,3-dimethyl-13-trans-prostenoate] | – | – | – | – | – | – | inhibition in vivo at 10 mg/kg (gastric acid secretion [6]; [11]): 59%; inhibition in vivo at 10 mg/kg (gastric acid secretion [6]; [12]): 18% |
| CCCCCC/C=C/[C@H]1CCC(=NOC)[C@@H]1CCCCCCC(=O)OCC (relative stereo) [ethyl 9-oxo-13-trans-prostenoate 9-methoxime] | – | – | – | – | – | – | inhibition in vivo at 10 mg/kg (gastric acid secretion [6]; [11]): 66%; inhibition in vivo at 10 mg/kg (gastric acid secretion [6]; [12]): 45% |
| CCCCCCCCCC/C=C/[C@H]1CCC(=O)[C@@H]1CCCCCCC(=O)OCC (relative stereo) [ethyl 20-butyl-9-oxo-13-trans-prostenoate] | – | – | – | – | – | – | MIC [7]: 250 µg/mL (≈ 615 µM); MIC [8]: 250 µg/mL (≈ 615 µM); minimal effective dose (diastolic blood pressure): 10 mg/kg |
| CCCC=CC1CCC(=O)C1CCCCCC(F)C(=O)O (stereo not drawn) [9-oxo-2-fluoro-18,19,20-trinor-13-trans-prostenoic acid] | 8.36 mg/kg | 6.35 mg/kg | > 10 mg/kg | 25 to 30 µg/mL (≈ 83.8 to 101 µM) | – | – | – |
